This is an account of results in paper PMC5516028, “Molecular tools for GABAA receptors: High affinity ligands for β1-containing subtypes” (Scientific Reports, 2017).

One assay has as its target T1, α3β3 GABAA receptors (Rattus norvegicus, UniProt P20236+P63079).
T1 construct: expressed in transfected cells; host or cells: Xenopus laevis oocytes, mRNA injected
The arrangement: method as in earlier work. The following applies: published data, ref 1 (Supplementary References), read-out: Approximate EC50; cited from earlier work.

A further assay concerns the target α2β1γ2 GABAA receptors. The arrangement: method as in earlier work. The settings on record: published data, ref 1 (Supplementary References), read-out: Approximate EC50; cited from earlier work.
In a further assay the target is T2, α1β1γ1 GABAA receptors (Rattus norvegicus, UniProt P15431+P62813).
T2 construct: expressed in transfected cells; host or cells: Xenopus laevis oocytes, mRNA injected
T2 sequence (P62813 28-455): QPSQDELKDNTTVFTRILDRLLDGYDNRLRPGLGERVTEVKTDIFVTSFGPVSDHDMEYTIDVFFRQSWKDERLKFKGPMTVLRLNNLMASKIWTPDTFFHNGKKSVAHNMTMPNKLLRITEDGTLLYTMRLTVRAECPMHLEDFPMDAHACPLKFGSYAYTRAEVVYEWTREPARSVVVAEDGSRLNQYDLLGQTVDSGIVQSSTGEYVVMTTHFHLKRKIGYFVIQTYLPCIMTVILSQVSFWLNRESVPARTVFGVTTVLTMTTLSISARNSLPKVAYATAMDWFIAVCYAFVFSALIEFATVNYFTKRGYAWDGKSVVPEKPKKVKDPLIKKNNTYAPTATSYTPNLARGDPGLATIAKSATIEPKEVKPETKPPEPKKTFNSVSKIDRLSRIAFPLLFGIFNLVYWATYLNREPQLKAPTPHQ
T2 sequence (P15431 26-474): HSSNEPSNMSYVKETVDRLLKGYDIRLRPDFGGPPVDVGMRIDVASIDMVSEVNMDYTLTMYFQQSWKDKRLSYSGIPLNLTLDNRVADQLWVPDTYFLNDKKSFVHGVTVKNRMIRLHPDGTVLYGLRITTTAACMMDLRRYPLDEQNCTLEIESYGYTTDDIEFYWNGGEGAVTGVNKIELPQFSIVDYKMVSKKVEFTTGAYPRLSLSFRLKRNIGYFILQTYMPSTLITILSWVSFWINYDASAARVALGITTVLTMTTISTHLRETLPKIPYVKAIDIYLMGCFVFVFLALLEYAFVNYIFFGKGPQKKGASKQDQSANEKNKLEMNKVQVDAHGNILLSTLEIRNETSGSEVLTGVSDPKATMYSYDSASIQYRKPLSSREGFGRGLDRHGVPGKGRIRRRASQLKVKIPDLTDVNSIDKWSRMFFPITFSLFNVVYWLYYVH
T2 sequence (P23574 36-465 partner limits assumed): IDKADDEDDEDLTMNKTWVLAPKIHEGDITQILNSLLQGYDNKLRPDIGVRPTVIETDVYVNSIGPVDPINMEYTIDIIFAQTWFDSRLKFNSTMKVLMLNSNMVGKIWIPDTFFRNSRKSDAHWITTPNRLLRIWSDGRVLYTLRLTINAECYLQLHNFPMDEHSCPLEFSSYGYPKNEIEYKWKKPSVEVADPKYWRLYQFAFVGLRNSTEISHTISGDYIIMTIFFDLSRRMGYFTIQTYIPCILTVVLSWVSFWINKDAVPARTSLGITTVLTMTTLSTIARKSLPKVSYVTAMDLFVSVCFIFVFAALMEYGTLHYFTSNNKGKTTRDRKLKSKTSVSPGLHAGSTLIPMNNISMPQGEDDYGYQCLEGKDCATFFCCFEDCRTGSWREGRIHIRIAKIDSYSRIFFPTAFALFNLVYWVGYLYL
The experiment in a line: Two electrode voltage clamp in Xenopus laevis oocytes, α1β1γ1. In kind it is cell-based. An excerpt:
cDNA’s of rat GABAA receptor subunits α1, α4, β1, β2, β3 and γ2S were cloned as described. cDNAs of the rat subunits α2, α3 and α5 were gifts from P. Malherbe, that of α6 and γ1 were gifts of P. Seeburg and that of δ was a gift of C. Czajkowski. The mutants were constructed using the Q5 Site-Directed Mutagenesis Kit (New England Biolabs) following manufacturer’s instruction. We used the wild-type rat β3-pCI vector as template and the primers […] and […] resulting in a substitution of amino acid N41 (AAC) to R (AGG). We used the wild-type rat β1-pCI vector as template and the primers […] and […] resulting in a substitution of amino acid R41 (CGG) to N (AAC). The mutated subunits were confirmed by sequencing.
In vitro transcription of mRNA was based on the cDNA expression vectors encoding for rat GABAA receptor subunits α1–6, β1-3, γ1,2, δ and the two β mutants (β1R41N and β3N41R)[40]. After linearizing the cDNA vectors with appropriate restriction endonucleases, the cDNA was purified and concentrated with the DNA Clean and Contentrator ^TM Kit (Zymoresearch, Catalog No. D4005). Capped transcripts of the purified cDNA were produced using the mMESSAGE mMACHINE® T7 transcription kit (Ambion, TX, USA) and polyadenylated using the Ambion PolyA tailing kit (Ambion). After transcription and polyadenylation the RNA was purified with the MEGAclear ^TM Kit (Ambion, Catalog No. AM1908). The final RNA concentration was measured on NanoDrop® ND-1000 and finally diluted and stored in diethylpyrocarbonate-treated water at −80 °C. For the microinjection, the RNA of αβ receptor combinations was mixed at 1:1 ratio (which leads to αβ receptors that consist of predominantly 3 beta and 2 alpha subunits[27]), for αkβlγm (k = 1–3, l = 1, 3, m = 1, 2) receptors at 1:1:5 ratio, for αkβ3γ2 (k = 4–6) and αkβlδ (k = 1, 4 and 6, l = 1, 3) receptor combinations at 3:1:5 ratio.
Mature female Xenopus laevis (Nasco, WI) were anesthetized in a bath of ice-cold 0.17% Tricain (Ethyl-m-aminobenzoate, Sigma, MO) before decapitation in full accordance with all rules of the Austrian animal protection law (see http://www.ris.bka.gv.at/Dokumente/BgblAuth/BGBLA_2012_I_114/BGBLA_2012_I_114.pdf) and the Austrian animal experiment by-laws (see https://www.ris.bka.gv.at/Dokumente/BgblAuth/BGBLA_2012_II_522/BGBLA_2012_II_522.pdf) which implement the European Directive 2010/63/EU (see http://eur-lex.europa.eu/LexUriServ/LexUriServ.do?uri=OJ:L:2010:276:0033:0079:en:PDF) into the Austrian law (all information accessed on July 27, 2016). The frog’s ovaries were transferred to ND96 medium (96 mM NaCl, 2 mM KCl, 1 mM MgCl2, 5 mM HEPES; pH 7.5). Stage 5–6 oocytes with the follicle cell layer around them were roughly dissected with forceps into packages of 10–15 cells and washed in Ca^2+-free ND96 medium. Cells were then digested with collagenase (type IA, Sigma, NO, 1 mg/mL ND96) at 18 °C shaking at 30 rpm for 30–60 minutes and gently defolliculated with the aid of a glass pipette with appropriate tip diameter and a platinum loop. Defolliculated cells were stored at 18 °C for at least 6 hours in ND96 solution containing penicillin G (10000 IU/100 mL) and streptomycin (10 mg/100 mL) in order to preselect and exclude damaged cells from further treatment. Healthy defolliculated oocytes were injected with an aqueous solution of mRNA. A total of 4.5 ng of mRNA per oocyte was injected with a Nanoject II (Drummond). After injection of mRNA, oocytes were incubated at 18 °C (ND96 + antibiotic) for 2–3 days for αβ receptors and for 3–4 days for αβγ or αβδ receptors before recording. When cells were measured at later time points, oocytes were stored at +4 °C instead of 18 °C.
For electrophysiological recordings, oocytes were placed on a nylon-grid in a bath of Ca^2+-containing NDE solution medium [96 mM NaCl, 5 mM HEPES-NaOH (pH 7.5), 2 mM KCl, 1 mM MgCl2, 1.8 mM CaCl2].
A general note: Two-electrode voltage clamp is typically applied to oocytes expressing channels or transporters.

The next assay addresses T3, α3β3γ2 GABAA receptors (Rattus norvegicus, UniProt P20236+P63079).
T3 construct: expressed in transfected cells; host or cells: Xenopus laevis oocytes, mRNA injected
The arrangement: method as in earlier work. The following applies: published data, ref 1 (Supplementary References), read-out: Approximate EC50; cited from earlier work.

A further assay deals with α1β2γ2 GABAA receptors. The arrangement: method as in earlier work. The following applies: published data, ref 1 (Supplementary References), read-out: Approximate EC50; cited from earlier work.
The target in another assay is T4, α6β3γ2 GABAA receptors (Rattus norvegicus, UniProt P30191+P63079).
T4 construct: expressed in transfected cells; host or cells: Xenopus laevis oocytes, mRNA injected
T4 sequence (P30191 20-453): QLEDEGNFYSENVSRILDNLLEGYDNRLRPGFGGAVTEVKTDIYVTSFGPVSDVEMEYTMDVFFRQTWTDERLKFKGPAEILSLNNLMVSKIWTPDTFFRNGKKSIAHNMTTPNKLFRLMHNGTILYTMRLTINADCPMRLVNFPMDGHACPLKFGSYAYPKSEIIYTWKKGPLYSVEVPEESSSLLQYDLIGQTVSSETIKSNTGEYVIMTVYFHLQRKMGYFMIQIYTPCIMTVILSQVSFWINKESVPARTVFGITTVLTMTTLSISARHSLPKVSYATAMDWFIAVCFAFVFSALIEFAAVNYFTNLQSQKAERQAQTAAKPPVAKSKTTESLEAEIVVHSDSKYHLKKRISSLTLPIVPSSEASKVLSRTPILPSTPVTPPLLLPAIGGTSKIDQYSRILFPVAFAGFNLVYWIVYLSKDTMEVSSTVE
T4 sequence (P63079 26-473): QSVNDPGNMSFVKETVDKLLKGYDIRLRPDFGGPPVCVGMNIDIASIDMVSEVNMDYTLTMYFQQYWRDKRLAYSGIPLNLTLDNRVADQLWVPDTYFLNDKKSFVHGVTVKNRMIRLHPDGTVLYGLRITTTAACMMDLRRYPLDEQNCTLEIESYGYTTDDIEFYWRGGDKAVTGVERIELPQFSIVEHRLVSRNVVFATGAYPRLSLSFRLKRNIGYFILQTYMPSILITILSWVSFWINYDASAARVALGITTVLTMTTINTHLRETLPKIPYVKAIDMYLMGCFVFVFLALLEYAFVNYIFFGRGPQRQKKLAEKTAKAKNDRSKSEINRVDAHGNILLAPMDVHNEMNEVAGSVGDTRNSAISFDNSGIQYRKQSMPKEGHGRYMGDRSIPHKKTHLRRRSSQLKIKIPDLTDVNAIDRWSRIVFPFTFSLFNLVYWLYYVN
T4 sequence (P18508 39-466 partner): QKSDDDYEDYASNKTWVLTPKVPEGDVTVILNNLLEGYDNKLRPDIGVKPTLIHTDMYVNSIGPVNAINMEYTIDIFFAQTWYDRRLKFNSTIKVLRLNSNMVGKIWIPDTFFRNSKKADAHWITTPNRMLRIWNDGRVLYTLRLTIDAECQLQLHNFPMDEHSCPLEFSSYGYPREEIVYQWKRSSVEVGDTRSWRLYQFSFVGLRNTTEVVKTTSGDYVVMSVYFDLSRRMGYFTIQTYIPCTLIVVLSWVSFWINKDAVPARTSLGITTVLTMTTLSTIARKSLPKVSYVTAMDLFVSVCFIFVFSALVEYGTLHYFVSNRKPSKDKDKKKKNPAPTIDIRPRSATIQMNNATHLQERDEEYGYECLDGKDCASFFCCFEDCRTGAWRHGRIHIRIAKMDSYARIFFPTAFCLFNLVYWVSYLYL
The arrangement: method as in earlier work. The settings on record: published data, ref 1 (Supplementary References), read-out: Approximate EC50; cited from earlier work.

SMILES strings stand for the structures.

T1 sequence (P20236 29-493): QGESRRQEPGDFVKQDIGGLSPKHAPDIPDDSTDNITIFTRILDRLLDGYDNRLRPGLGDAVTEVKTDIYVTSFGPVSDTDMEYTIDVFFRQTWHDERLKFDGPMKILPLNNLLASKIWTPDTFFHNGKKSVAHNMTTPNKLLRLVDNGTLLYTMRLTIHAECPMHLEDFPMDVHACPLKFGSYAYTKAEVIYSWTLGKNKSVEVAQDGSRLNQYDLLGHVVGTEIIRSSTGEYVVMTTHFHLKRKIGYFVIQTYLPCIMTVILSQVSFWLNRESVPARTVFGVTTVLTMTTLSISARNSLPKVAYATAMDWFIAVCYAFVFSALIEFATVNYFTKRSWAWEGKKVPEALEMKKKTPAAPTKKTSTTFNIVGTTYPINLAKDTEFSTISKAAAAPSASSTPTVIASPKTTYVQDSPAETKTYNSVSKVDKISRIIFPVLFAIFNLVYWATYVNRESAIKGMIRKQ
T1 sequence (P63079 26-473): as the sequence (P63079 26-473) above
T3 sequence (P20236 29-493): as the sequence (P20236 29-493) above
T3 sequence (P63079 26-473): as the sequence (P63079 26-473) above
T3 sequence (P18508 39-466 partner): as the sequence (P18508 39-466 partner) above

With `COc1ccc(-n2nc3c4cc(Cl)ccc4[nH]cc-3c2=O)cc1` [Compound 1, 8-Chloro-2-(4-methoxyphenyl)-2H-pyrazolo[4,3-c]quinolin-3(5H)-one], the EC50 is around 1.8 µM at α3β3 GABAA receptors; around 0.05 µM on α2β1γ2 GABAA receptors; 0.08 µM at α1β1γ1 GABAA receptors; around 1.5 µM at α3β3γ2 GABAA receptors; around 1.9 µM at α1β2γ2 GABAA receptors; around 3.3 µM on α6β3γ2 GABAA receptors. Further, the activity at 0.001 µM at α1β1γ1 GABAA receptors (read-out: efficacy, % of control current (GABA EC3-5 = 100%), α1β1γ1, 1 nM) amounted to 110 ± 9.9%. For the same compound, at α1β1γ1 GABAA receptors (read-out: efficacy, % of control current (GABA EC3-5 = 100%), α1β1γ1, 1 µM), the activity at 1 µM is 320 ± 17.9%. Also, the activity at 10 µM at α1β1γ1 GABAA receptors (read-out: efficacy, % of control current (GABA EC3-5 = 100%), α1β1γ1, 10 µM) stood at 300 ± 20.8%. For the same compound, the “Hill slope (nH)” value on α1β1γ1 GABAA receptors (α1β1γ1) came out at 1.1±0.4.

A word on the EC50: it is the concentration giving half of the maximal effect.
